What was measured:
[1] = target: T1, aldose reductase, originating from the lens of cattle (Bos taurus, UniProt P16116); experiment: Enzyme reaction inhibiting activity (aldose reductase, NADPH / D,L-glyceraldehyde, absorbance at 340 nm); assay type: biochemical; conditions: for inhibition at 0.1 µg: concentration of 0.1 γ, pH 6.0, 37° C.
T1 construct: originating from the lens of cattle, was employed after being subjected to a partial purification; from tissue; host or cells: lens of cattle, partially purified
Procedure: The preparation of aldose reductase and the determination of its enzyme reaction inhibiting activity were carried out pursuant to the procedures disclosed by Haymann et al. in Journal of Biological Chemistry, 240, 877 (1965).
The sample solution to be examined for inhibiting activity was prepared by dissolving an amount of a compound of formula (I) according to the present invention in a small amount of methanol and increasing the volume of the resulting methanol solution by diluting it with distilled water up to tenfold volume. As the enzyme, i.e. aldose reductase, originating from the lens of cattle, was employed after being subjected to a partial purification.
To 2.4 ml of 5×10^-5 M NADPH solution dissolved in a 2/15 M phosphate buffer solution (pH 6.0), 0.4 ml of the enzyme solution and 0.1 ml of the sample solution to be examined were added and the mixture was charged in a quartz cell in a photoelectric photometer and was subjected to preincubation at 37° C. for 4 mins. Then, 0.1 ml of a 0.015 M D,L-glyceraldehyde solution was added thereto for initiating the enzyme reaction and the decrease in the photoabsorbance at 340 nm was measured at 37° C. for 4 mins. The aldose reductase inhibiting activity calculated by [formula] in which A represents the enzyme reaction rate with addition of the inhibitor and B denotes the enzyme reaction rate without addition of the inhibitor.

[2] = test system: sorbitol accumulation in lens; experiment: Activity for suppressing accumulation of sorbitol, tissue culture of lens; assay type: cell-based, Wistar rats; conditions: for Inhibition of Sorbite Accumulat. in Lens: concentration of 2.5 γ, rat lens cultured 20 hours with added glucose
Procedure: (§1) Lenses and sciatic nerves excised from 7 weeks-old male Wistar rats were washed twice with an aseptic buffer solution consisting of 0.3% trisaminomethane, 0.8% NaCl, 0.038% KCl, 0.025% Na2 HPO4.12H2 O, 0.1% glucose and 1.85 ml/1 of concentrated HCl.
(§2) The lenses and the sciatic nerves were then treated by a 30 mins. preculture in a culture medium prepared by adding 2 ml of 7.5% conc. aseptic NaHCO3 solution and 5.5 ml of aseptic calf fetus serum to 100 ml of an aseptic culture medium of 0.98% TC Medium 199 (supplied from the firm NISSUI) containing 0.01% of dihydrostreptomycin and 0.01% of benzyl-penicillin. Thereafter, the intrinsic culture was effected in a culture medium prepared by adding each sample solution to be examined and 0.09% of glucose to the above-mentioned culture medium and permitting culturing to proceed for 20 hours. The culturing was effected at 37° C. in an atmosphere composed of 95% air and 5% CO2.
(§3) After culturing, the cultured samples of lens and sciatic nerve were removed from the culture medium to filter paper and the weight of each of them was measured after the adherent culture solution had been blown off. Then, each of the cultured samples was homogenized with the addition of 1 ml of a cold 8% HClO4 solution and the homogenized mixture was subjected to centrifugation at 10,000 G for 10 mins., whereby a supernatant was obtained. The resulting precipitate was then homogenized again with addition thereto of 0.5 ml of cold 8% HClO4 solution and the homogenized mixture was again subjected to centrifugation in a similar way as above to obtain a further supernatant. This was combined with the previously obtained supernatant and the resulting solution was neutralized with 2 N KOH aq. solution and was diluted with distilled water to a volume of 5 ml. The precipitate formed by neutralization was separated by centrifugation at 3,000 rpm for 10 mins. and the resulting supernatant was employed as the sample for determining the sorbitol content.
(§4) The determination of the sorbitol content in the lens and in the sciatic nerve was carried out in accordance with the technique of Bergmeyer in "Methods of Enzymatic Analysis" edited by H.U. Bergmeyer, pp 1323-1326, Academic Press, New York, 1974 and in accordance with the technique proposed by Malaon et al. in "Diabetes" 29, 861-864 (1980).
(§5) To 0.5 ml of the sample solution for determination of sorbitol content obtained as above, 0.9 ml of 0.1 M glycine-KOH buffer solution (pH 9.4) containing 1 mM of NAD^+ and 0.1 ml of a solution of sorbitol dehydrogenase of 20 units/ml were added and the resulting mixture was subjected to incubation at 37° C. for 1 hour.
(§6) The content of sorbitol in each tissue was estimated by assuming the increment of the photoabsorbance at 340 nm to be proportional to the amount of NADH produced by the reaction for the lens and by detecting the fluorescence with an excitation wavelength of 366 nm and a fluorescence wavelength of 425 nm for the sciatic nerve.
(§7) The activity for suppressing accumulation of sorbitol, i.e. the aldose reductase inhibiting activity, was calculated from the determined sorbitol content by the calculation formula [formula] in which A denotes the content of sorbitol per unit weight of the tissue after cultivation with addition of the inhibitor, B denotes the sorbitol content per unit weight of the tissue after cultivation without addition of the inhibitor and C represents the sorbitol content per unit weight of the tissue after cultivation in the medium without addition of glucose and inhibitor.

[3] = test system: sorbitol accumulation in sciatic nerve; experiment: Activity for suppressing accumulation of sorbitol, tissue culture of sciatic nerve; assay type: cell-based, Wistar rats; conditions: concentration of 1.0 γ; rat sciatic nerve cultured 20 hours with added glucose
Procedure: as §1, §2, §3, §4, §5, §6, §7

STD-DDY mice = experiment: Acute toxicity, oral; assay type: in vivo; conditions: orally 400 mg/20 ml/kg, dissolved with aqueous NaOH at pH 6.5-7.0, observed for 10 days
Procedure: Compounds of formula (I) according to the present invention, as given in the examples below or 2,2'-dimethoxy-5, 5'-bis(3-carboxypropyl) biphenyl, were suspended in distilled water and were dissolved completely by adding at least the equimolar amount of aqueous NaOH solution. […] No fatality was marked in any of the administered groups.

Molecule | inhibition at 0.1 µg [1] [%] | Inhibition of Sorbite Accumulat. in Lens [2] [%] | Inhibition of Sorbite Accum. in Sciatic N. [3] [%] | fatality (acute toxicity) (STD-DDY mice) | aldose reductase inhibiting activity (in words) ([1]; tests according to 1) and 2), concentration not given) | activity for suppressing accumulation of sorbitol (in words) ([2]; tissue and concentration not stated)
CCOc1ccc(CCC(=O)O)cc1-c1cc(CCC(=O)O)ccc1OCC [R=C2H5, n=2, 2,2'-diethoxy-5,5'-bis(2-carboxyethyl) biphenyl] | 43 | 56 | 69 | – | – | –
COc1ccc(CCCC(=O)O)cc1-c1cc(CCCC(=O)O)ccc1OC [R=CH3, n=3, 2,2'-dimethoxy-5,5'-bis (3-carboxypropyl) biphenyl] | 63 | 85 | 92 | No fatality | – | –
CCCCCOc1ccc(CCCC(=O)O)cc1-c1cc(CCCC(=O)O)ccc1OCCCCC [R=C5H11, n=3, 2,2'-dipentyloxy-5,5,'-bis(3-carboxypropyl) biphenyl] | 48 | – | – | – | – | –
O=C(O)CCc1ccc(OCC2CCCCC2)c(-c2cc(CCC(=O)O)ccc2OCC2CCCCC2)c1 [2,2'-dicyclohexylmethoxy-5,5'-bis(2-carboxyethyl) biphenyl] | 44 | 51 | – | – | – | –
CCCOc1ccc(CCC(=O)O)cc1-c1cc(CCC(=O)O)ccc1OCCC [R=C3H7, n=2, 2,2'-dipropoxy-5,5'-bis(2-carboxyethyl) biphenyl] | 35 | 66 | 67 | – | – | –
2,2'-dimethoxy-5, 5'-bis(3-carboxypropyl) biphenyl diester | – | – | – | – | did not exhibit any aldose reductase inhibiting activity | no activity for suppressing accumulation of sorbitol
O=C(O)CCCc1ccc(OCC2CCCCC2)c(-c2cc(CCCC(=O)O)ccc2OCC2CCCCC2)c1 [2,2'-dicyclohexylmethoxy-5,5'-bis(3-carboxypropyl) biphenyl] | 45 | 57 | – | – | – | –
CCCOc1ccc(CCCC(=O)O)cc1-c1cc(CCCC(=O)O)ccc1OCCC [R=C3H7, n=3, 2,2'-dipropoxy-5,5'-bis(3-carboxypropyl) biphenyl] | 57 | 68 | 67 | – | – | –
CCOc1ccc(CCCC(=O)O)cc1-c1cc(CCCC(=O)O)ccc1OCC [R=C2H5, n=3, 2,2'-diethoxy-5,5'-bis(3-carboxypropyl) biphenyl] | 77 | 76 | 80 | – | – | –
COc1ccc(CCC(=O)O)cc1-c1cc(CCC(=O)O)ccc1OC [R=CH3, n=2, 2,2'-dimethoxy-5,5'-bis(2-carboxyethyl) biphenyl] | 44 | 76 | 85 | – | – | –

Reference: patent US5155259A, “Aldose reductase inhibitor” (Toyo Jozo Kabushiki Kaisha, priority 1990, dated 1992)
